Test results from ChEMBL document CHEMBL3232736, “Antiproliferative activities of halogenated thieno[3,2-d]pyrimidines” (Bioorg Med Chem, 2014).
Values after ≈ are worked out from the molar mass of the structure shown. Active and inactive are the calls of the source. The rule behind the calls is not given here.

Tests used:
HeLa [1] = test: Cytotoxicity against human HeLa cells assessed as reduction in cell number after 72 hrs by cell counting assay; assay type: functional, cell-based
L1210 [2] = test: Cytotoxicity against mouse L1210 cells assessed as reduction in cell number after 48 hrs by cell counting assay; assay type: functional, cell-based; details: L1210, 48 h
CCRF-CEM = test: Cytotoxicity against human CCRF-CEM cells assessed as reduction in cell number after 72 hrs by cell counting assay; assay type: functional, cell-based
Escherichia coli [3] = test: Antibacterial activity against Escherichia coli ATCC 25922 assessed as growth inhibition after 16 to 20 hrs by microbroth dilution method; assay type: functional
Staphylococcus aureus [4] = test: Antibacterial activity against methicillin-resistant Staphylococcus aureus subsp. aureus ATCC 43300 assessed as growth inhibition after 16 to 20 hrs by microbroth dilution method; assay type: functional
Enterococcus faecalis [5] = test: Antibacterial activity against vancomycin-resistant Enterococcus faecalis ATCC 51299 assessed as growth inhibition after 16 to 20 hrs by microbroth dilution method; assay type: functional
Bacillus spizizenii [6] = test: Antibacterial activity against Bacillus subtilis ATCC 6633 assessed as growth inhibition after 16 to 20 hrs by microbroth dilution method; assay type: functional
Pseudomonas aeruginosa [7] = test: Antibacterial activity against Pseudomonas aeruginosa ATCC 27853 assessed as growth inhibition after 16 to 20 hrs by microbroth dilution method; assay type: functional
Escherichia coli [8] = test: Antibacterial activity against Escherichia coli ATCC 25922 assessed as growth inhibition at 100 uM after 16 to 20 hrs by microbroth dilution method; assay type: functional, organism-based
Cryptococcus neoformans [9] = test: Antifungal activity against Cryptococcus neoformans VANC-R265 assessed as growth inhibition at 100 uM after 48 hrs by microbroth dilution method; assay type: functional
Cryptococcus neoformans [10] = test: Antifungal activity against Cryptococcus neoformans B4546 assessed as growth inhibition at 100 uM after 48 hrs by microbroth dilution method; assay type: functional
Bacillus spizizenii [11] = test: Antibacterial activity against Bacillus subtilis ATCC 6633 assessed as growth inhibition at 100 uM after 16 to 20 hrs by microbroth dilution method; assay type: functional
Vero = test: Cytotoxicity against African green monkey Vero cells assessed as reduction in cell number; assay type: cell-based; details: chlorocebus sabaeus
HeLa [12] = test: Cytotoxicity against human HeLa cells assessed as reduction in cell number; assay type: functional
Staphylococcus aureus [13] = test: Antibacterial activity against methicillin-resistant Staphylococcus aureus subsp. aureus ATCC 43300 assessed as growth inhibition at 100 uM after 16 to 20 hrs by microbroth dilution method; assay type: functional, organism-based
Candida albicans [14] = test: Antifungal activity against Candida albicans ATCC 10231 assessed as growth inhibition at 100 uM after 16 to 20 hrs by microbroth dilution method; assay type: functional
Cryptococcus neoformans [15] = test: Antifungal activity against Cryptococcus neoformans JEC20 assessed as growth inhibition at 100 uM after 48 hrs by microbroth dilution method; assay type: functional
HEL = test: Cytotoxicity against human HEL cells assessed as reduction in cell number by cell counting assay; assay type: functional
Cryptococcus neoformans [16] = test: Antifungal activity against Cryptococcus neoformans ATCC 66031 assessed as growth inhibition at 100 uM after 48 hrs by microbroth dilution method; assay type: functional
Enterococcus faecalis [17] = test: Antibacterial activity against vancomycin-resistant Enterococcus faecalis ATCC 51299 assessed as growth inhibition at 100 uM after 16 to 20 hrs by microbroth dilution method; assay type: functional, organism-based
L1210 [18] = test: Induction of apoptosis in mouse L1210 cells assessed as early apoptotic cells level at 1 uM after 48 hrs by Annexin-V/7-AAD staining-based flow cytometric analysis (reference value: 2.59%); assay type: functional
[19] = biological target: Tyrosine-protein kinase JAK2 (Homo sapiens) (UniProt O60674); test: Inhibition of JAK2 (unknown origin) at 5 uM
[20] = biological target: Tyrosine-protein kinase JAK1 (Homo sapiens) (UniProt P23458); test: Inhibition of JAK1 (unknown origin) at 5 uM
[21] = biological target: Tyrosine-protein kinase JAK2 (Homo sapiens) (UniProt O60674); test: Inhibition of JAK2 JH1/JH2 domain (unknown origin) at 5 uM
L1210 [22] = test: Induction of apoptosis in mouse L1210 cells assessed as viable cells level at 1 uM after 48 hrs by Annexin-V/7-AAD staining-based flow cytometric analysis (reference value: 92.5%); assay type: functional
[23] = biological target: PI3-kinase p110-alpha/p85-alpha (Homo sapiens) (UniProt P27986+P42336); test: Inhibition of PIK3CA/PIK3R1 (unknown origin) at 5 uM; assay type: protein-complex assay
L1210 [24] = test: Cell cycle arrest in mouse L1210 cells at 0.32 uM after 24 to 48 hrs by propidium iodide staining-based flow cytometric analysis; assay type: functional
[25] = biological target: Hepatocyte growth factor receptor (Homo sapiens) (UniProt P08581); test: Inhibition of MET (unknown origin) at 5 uM
[26] = biological target: Phosphatidylinositol 4,5-bisphosphate 3-kinase catalytic subunit gamma isoform (Homo sapiens) (UniProt P48736); test: Inhibition of PIK3CG (unknown origin) at 5 uM
[27] = biological target: Phosphatidylinositol 3-kinase catalytic subunit type 3 (Homo sapiens) (UniProt Q8NEB9); test: Inhibition of PIK3C3 (unknown origin) at 5 uM
L1210 [28] = test: Induction of apoptosis in mouse L1210 cells assessed as necrotic cells level at 1 uM after 48 hrs by Annexin-V/7-AAD staining-based flow cytometric analysis (reference value: 3.68%); assay type: functional
[29] = biological target: Tyrosine-protein kinase JAK3 (Homo sapiens) (UniProt P52333); test: Inhibition of JAK3 (unknown origin) at 5 uM
[30] = biological target: Non-receptor tyrosine-protein kinase TYK2 (Homo sapiens) (UniProt P29597); test: Inhibition of TYK2 (unknown origin) at 5 uM
Cryptococcus neoformans [31] = test: Antifungal activity against Cryptococcus neoformans JEC20 assessed as growth inhibition after 48 hrs by microbroth dilution method; assay type: functional; details: JEC20, 48 h
[32] = biological target: Serine/threonine-protein kinase D3 (Homo sapiens) (UniProt O94806); test: Inhibition of PRKCN (unknown origin) at 5 uM
Candida albicans [33] = test: Antifungal activity against Candida albicans ATCC 10231 assessed as growth inhibition after 16 to 20 hrs by microbroth dilution method; assay type: functional
[34] = biological target: PI3-kinase p110-delta/p85-alpha (Homo sapiens) (UniProt P27986+O00329); test: Inhibition of PIK3CD/PIK3R1 (unknown origin) at 5 uM; assay type: protein-complex assay
[35] = biological target: Proto-oncogene tyrosine-protein kinase Src (Homo sapiens) (UniProt P12931); test: Inhibition of SRC N1 (unknown origin) at 5 uM
[36] = biological target: Phosphatidylinositol 4-phosphate 3-kinase C2 domain-containing subunit alpha (Homo sapiens) (UniProt O00443); test: Inhibition of PIK3C2A (unknown origin) at 5 uM
[37] = biological target: Serine/threonine-protein kinase D1 (Homo sapiens) (UniProt Q15139); test: Inhibition of PRKD1 (unknown origin) at 5 uM
Pseudomonas aeruginosa [38] = test: Antibacterial activity against Pseudomonas aeruginosa ATCC 27853 assessed as growth inhibition at 100 uM after 16 to 20 hrs by microbroth dilution method; assay type: functional, organism-based
[39] = biological target: Serine/threonine-protein kinase mTOR (Homo sapiens) (UniProt P42345); test: Inhibition of FRAP1 (unknown origin) at 5 uM
Cryptococcus neoformans [40] = test: Antifungal activity against Cryptococcus neoformans B4546 assessed as growth inhibition after 48 hrs by microbroth dilution method; assay type: functional; details: B4546, 48 h
L1210 [41] = test: Cytotoxicity against mouse L1210 cells assessed as reduction in cell viability after 48 hrs by MTT assay; assay type: functional, cell-based; details: L1210, 48 h
L1210 [42] = test: Induction of apoptosis in mouse L1210 cells assessed as late cells level at 1 uM after 48 hrs by Annexin-V/7-AAD staining-based flow cytometric analysis (reference value: 1.25%); assay type: functional
[43] = biological target: Phosphatidylinositol 4-phosphate 3-kinase C2 domain-containing subunit beta (Homo sapiens) (UniProt O00750); test: Inhibition of PIK3C2B (unknown origin) at 5 uM
[44] = biological target: Serine/threonine-protein kinase D2 (Homo sapiens) (UniProt Q9BZL6); test: Inhibition of PRKD2 (unknown origin) at 5 uM
[45] = tested on: Tyrosine-protein kinase JAK2 (Homo sapiens), O60674 [V617F]; test: Inhibition of JAK2 JH1/JH2 domain V617F mutant (unknown origin) at 5 uM
[46] = biological target: Leukocyte tyrosine kinase receptor (Homo sapiens) (UniProt P29376); test: Inhibition of LTK (unknown origin) at 5 uM
[47] = biological target: Proto-oncogene tyrosine-protein kinase Src (Homo sapiens) (UniProt P12931); test: Inhibition of SRC (unknown origin) at 5 uM

Tyrosine-protein kinase JAK2 (Homo sapiens), sequence (O60674 whole entry, the tested form may be a part): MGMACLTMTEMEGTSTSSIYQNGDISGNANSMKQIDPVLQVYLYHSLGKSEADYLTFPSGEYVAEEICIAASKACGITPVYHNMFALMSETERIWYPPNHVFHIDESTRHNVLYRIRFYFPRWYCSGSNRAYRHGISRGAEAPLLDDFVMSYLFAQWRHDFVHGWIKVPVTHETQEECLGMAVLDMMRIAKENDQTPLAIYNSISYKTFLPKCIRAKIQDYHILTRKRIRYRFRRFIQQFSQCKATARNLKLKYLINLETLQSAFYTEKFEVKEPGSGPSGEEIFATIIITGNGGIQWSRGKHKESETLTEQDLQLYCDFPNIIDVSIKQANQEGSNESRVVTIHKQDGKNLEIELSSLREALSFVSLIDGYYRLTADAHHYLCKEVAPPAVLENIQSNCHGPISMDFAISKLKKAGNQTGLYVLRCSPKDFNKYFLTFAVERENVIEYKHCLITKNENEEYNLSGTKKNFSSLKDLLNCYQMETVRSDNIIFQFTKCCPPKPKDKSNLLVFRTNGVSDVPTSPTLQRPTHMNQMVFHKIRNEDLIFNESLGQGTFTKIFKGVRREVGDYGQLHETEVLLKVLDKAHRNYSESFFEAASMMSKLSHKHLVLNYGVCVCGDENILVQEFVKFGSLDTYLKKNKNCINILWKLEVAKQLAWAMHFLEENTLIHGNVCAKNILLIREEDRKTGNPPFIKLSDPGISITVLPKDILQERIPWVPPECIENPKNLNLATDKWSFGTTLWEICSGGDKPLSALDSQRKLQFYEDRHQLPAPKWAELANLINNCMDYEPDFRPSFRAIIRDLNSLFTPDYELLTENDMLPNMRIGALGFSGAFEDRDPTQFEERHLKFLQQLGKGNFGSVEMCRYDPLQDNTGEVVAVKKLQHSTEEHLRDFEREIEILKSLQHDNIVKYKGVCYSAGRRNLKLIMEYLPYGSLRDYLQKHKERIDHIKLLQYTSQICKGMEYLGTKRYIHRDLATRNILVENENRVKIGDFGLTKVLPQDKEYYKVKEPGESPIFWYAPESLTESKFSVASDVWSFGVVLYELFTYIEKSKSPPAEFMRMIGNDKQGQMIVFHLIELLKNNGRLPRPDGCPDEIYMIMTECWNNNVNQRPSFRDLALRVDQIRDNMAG
Proto-oncogene tyrosine-protein kinase Src (Homo sapiens), sequence (P12931 2-536 limits assumed): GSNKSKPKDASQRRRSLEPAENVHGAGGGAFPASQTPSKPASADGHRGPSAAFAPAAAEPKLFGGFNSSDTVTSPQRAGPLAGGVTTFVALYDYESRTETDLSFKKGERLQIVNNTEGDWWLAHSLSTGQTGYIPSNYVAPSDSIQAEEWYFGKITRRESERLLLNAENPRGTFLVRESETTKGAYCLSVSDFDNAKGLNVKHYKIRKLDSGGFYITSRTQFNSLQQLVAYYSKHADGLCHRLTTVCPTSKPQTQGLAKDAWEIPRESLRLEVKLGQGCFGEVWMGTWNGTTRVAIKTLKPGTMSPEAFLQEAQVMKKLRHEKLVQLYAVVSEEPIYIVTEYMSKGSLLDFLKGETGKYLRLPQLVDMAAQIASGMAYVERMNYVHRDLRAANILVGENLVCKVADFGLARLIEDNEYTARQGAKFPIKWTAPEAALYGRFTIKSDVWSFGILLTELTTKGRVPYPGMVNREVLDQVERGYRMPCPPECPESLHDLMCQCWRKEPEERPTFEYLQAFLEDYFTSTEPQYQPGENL
Serine/threonine-protein kinase D3 (Homo sapiens), sequence (O94806 whole entry): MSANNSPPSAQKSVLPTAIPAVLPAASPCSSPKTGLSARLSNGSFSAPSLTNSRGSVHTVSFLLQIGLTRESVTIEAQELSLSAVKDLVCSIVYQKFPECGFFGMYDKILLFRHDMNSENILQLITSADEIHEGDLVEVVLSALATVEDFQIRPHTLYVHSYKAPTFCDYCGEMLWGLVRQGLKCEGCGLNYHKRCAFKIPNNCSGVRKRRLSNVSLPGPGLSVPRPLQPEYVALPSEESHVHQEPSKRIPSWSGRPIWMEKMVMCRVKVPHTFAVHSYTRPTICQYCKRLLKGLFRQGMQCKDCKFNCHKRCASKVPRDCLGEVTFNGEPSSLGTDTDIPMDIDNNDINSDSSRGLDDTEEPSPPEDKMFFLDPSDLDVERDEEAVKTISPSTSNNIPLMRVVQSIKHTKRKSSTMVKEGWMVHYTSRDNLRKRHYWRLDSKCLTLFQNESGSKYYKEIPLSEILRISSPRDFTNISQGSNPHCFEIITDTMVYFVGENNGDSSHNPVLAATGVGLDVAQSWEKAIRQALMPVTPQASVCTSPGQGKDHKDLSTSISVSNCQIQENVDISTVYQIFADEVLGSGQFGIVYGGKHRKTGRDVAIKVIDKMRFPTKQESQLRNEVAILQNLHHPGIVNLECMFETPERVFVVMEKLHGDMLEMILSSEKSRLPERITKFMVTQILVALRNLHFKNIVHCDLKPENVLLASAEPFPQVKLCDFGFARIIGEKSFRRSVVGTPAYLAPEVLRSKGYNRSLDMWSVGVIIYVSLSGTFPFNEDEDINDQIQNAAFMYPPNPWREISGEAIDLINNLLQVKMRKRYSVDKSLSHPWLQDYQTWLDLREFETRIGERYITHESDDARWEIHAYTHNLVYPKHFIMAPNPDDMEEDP
Serine/threonine-protein kinase D1 (Homo sapiens), sequence (Q15139 whole entry): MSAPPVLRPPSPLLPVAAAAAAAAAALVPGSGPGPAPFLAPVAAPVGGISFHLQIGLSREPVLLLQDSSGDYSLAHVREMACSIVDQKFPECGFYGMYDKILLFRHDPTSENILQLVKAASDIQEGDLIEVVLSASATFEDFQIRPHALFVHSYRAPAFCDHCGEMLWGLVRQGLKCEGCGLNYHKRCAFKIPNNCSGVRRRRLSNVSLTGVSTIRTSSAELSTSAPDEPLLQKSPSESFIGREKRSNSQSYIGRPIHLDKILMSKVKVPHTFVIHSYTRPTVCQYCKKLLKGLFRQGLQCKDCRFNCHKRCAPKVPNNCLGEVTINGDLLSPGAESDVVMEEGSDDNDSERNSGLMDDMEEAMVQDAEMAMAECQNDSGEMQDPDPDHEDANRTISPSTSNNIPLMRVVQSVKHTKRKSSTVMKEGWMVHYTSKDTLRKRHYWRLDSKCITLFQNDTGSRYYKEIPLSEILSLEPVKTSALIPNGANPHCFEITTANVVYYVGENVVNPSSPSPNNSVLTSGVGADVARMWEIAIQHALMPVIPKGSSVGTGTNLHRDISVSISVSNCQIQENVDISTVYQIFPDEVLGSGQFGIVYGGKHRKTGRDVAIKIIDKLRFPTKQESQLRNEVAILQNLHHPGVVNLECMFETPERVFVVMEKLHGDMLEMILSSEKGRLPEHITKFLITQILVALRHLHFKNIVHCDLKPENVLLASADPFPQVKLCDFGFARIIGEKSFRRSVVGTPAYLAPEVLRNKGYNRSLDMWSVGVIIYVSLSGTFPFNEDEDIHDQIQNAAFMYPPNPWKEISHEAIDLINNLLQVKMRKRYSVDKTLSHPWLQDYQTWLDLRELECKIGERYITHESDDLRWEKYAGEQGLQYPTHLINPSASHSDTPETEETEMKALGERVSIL
Serine/threonine-protein kinase D2 (Homo sapiens), sequence (Q9BZL6 whole entry, the tested form may be a part): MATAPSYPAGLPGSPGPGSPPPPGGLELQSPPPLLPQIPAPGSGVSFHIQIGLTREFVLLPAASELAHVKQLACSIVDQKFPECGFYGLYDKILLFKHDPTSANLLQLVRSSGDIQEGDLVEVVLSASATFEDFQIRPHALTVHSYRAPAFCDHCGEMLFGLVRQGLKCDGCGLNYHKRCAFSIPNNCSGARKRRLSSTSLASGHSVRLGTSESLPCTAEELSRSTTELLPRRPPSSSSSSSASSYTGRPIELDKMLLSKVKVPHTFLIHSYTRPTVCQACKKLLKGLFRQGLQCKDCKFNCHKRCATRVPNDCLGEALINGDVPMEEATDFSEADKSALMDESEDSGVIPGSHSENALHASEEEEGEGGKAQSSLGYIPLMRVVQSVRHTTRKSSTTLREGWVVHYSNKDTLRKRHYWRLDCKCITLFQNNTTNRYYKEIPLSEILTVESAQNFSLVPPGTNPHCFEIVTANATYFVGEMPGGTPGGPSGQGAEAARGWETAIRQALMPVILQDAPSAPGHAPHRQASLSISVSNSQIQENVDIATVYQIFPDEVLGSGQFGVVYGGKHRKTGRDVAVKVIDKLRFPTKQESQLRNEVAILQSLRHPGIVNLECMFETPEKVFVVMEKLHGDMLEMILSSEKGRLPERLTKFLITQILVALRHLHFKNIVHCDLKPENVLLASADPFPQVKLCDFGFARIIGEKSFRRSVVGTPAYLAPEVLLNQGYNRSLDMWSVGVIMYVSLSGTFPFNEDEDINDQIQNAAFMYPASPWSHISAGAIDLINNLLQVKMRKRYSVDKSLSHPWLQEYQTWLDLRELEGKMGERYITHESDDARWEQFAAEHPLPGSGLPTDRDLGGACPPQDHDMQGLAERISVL
Tyrosine-protein kinase JAK2 (Homo sapiens), O60674 [V617F], sequence (O60674 whole entry V617F, the tested form may be a part): as the sequence (O60674 whole entry, the tested form may be a part) above, with V617F counted along it

SMILES: Clc1nc(-n2cncn2)c2scc(Br)c2n1
- IC50 (HeLa [1]): 116 µM
- IC50 (L1210 [2]): 157 µM
- IC50 (CCRF-CEM): 84 µM

SMILES: CN(C)[C@@H]1C(O)=C(C(N)=O)C(=O)[C@@]2(O)C(O)=C3C(=O)c4c(O)cccc4[C@@](C)(O)[C@H]3C[C@@H]12 [TETRACYCLINE]
- MIC95 (Escherichia coli [3]): 10 µg/mL (≈ 22.5 µM)
- MIC95 (Staphylococcus aureus [4]): 10 µg/mL (≈ 22.5 µM)
- MIC95 (Enterococcus faecalis [5]): 10 µg/mL (≈ 22.5 µM)
- MIC95 (Bacillus spizizenii [6]): 10 µg/mL (≈ 22.5 µM)
- MIC95 (Pseudomonas aeruginosa [7]): 50 µg/mL (≈ 113 µM)

SMILES: O=c1[nH]c(=O)c2sccc2[nH]1
- IC50 (HeLa [1]): > 250 µM
- IC50 (L1210 [2]): > 250 µM
- IC50 (CCRF-CEM): > 250 µM

SMILES: Clc1nc(Cl)c2[nH]ccc2n1
- inhibition (Escherichia coli [8]): inactive
- inhibition (Cryptococcus neoformans [9]): inactive
- inhibition (Cryptococcus neoformans [10]): inactive
- inhibition (Bacillus spizizenii [11]): inactive
- IC50 (HeLa [1]): 19 µM
- IC50 (L1210 [2]): 6.8 µM
- IC50 (CCRF-CEM): 25 µM
- MIC99 (Vero): >= 20 uM
- MIC99 (HeLa [12]): 20 µM (≈ 3.76 µg/mL)
- inhibition (Staphylococcus aureus [13]): inactive
- inhibition (Candida albicans [14]): inactive
- inhibition (Cryptococcus neoformans [15]): inactive
- MIC99 (HEL): 20 µM (≈ 3.76 µg/mL)
- inhibition (Cryptococcus neoformans [16]): inactive

SMILES: Clc1nc(-n2cncn2)c2sccc2n1
- IC50 (HeLa [1]): > 250 µM
- IC50 (L1210 [2]): > 250 µM
- IC50 (CCRF-CEM): > 250 µM

SMILES: COc1nc(OC)c2scc(Br)c2n1
- IC50 (HeLa [1]): 203 µM
- IC50 (L1210 [2]): > 250 µM
- IC50 (CCRF-CEM): ≥ 250 µM

SMILES: O=c1[nH]c(=O)c2scc([C@H]3C[C@H](O)[C@@H](CO)O3)c2[nH]1
- IC50 (HeLa [1]): > 250 µM
- IC50 (L1210 [2]): > 250 µM
- IC50 (CCRF-CEM): > 250 µM

SMILES: Clc1nc(Cl)c2sccc2n1
- inhibition (Enterococcus faecalis [17]): inactive
- inhibition (Escherichia coli [8]): inactive
- Activity (L1210 [18]): 56%
- inhibition [19]: < 40%
- inhibition [20]: < 40%
- inhibition [21]: < 40%
- inhibition at 100 µM (Bacillus spizizenii [11]): 43%
- Activity (L1210 [22]): 37.9%
- IC50 (HeLa [1]): 3.9 µM
- IC50 (L1210 [2]): 0.67 µM
- inhibition [23]: < 40%
- Activity (L1210 [24]): inactive
- inhibition [25]: < 40%
- IC50 (CCRF-CEM): 5.2 µM
- inhibition [26]: < 40%
- inhibition [27]: < 40%
- Activity (L1210 [28]): 1.29%
- inhibition [29]: < 40%
- MIC99 (Vero): 20 µM (≈ 4.1 µg/mL)
- inhibition [30]: < 40%
- MIC95 (Cryptococcus neoformans [31]): 16.6 µM (≈ 3.4 µg/mL)
- inhibition [32]: < 40%
- MIC99 (HeLa [12]): 4 µM (≈ 0.82 µg/mL)
- inhibition (Staphylococcus aureus [13]): inactive
- MIC95 (Candida albicans [33]): 23.4 µM (≈ 4.8 µg/mL)
- inhibition [34]: < 40%
- inhibition [35]: < 40%
- inhibition [36]: < 40%
- inhibition [37]: < 40%
- inhibition (Pseudomonas aeruginosa [38]): inactive
- MIC99 (HEL): 100 µM (≈ 20.5 µg/mL)
- inhibition [39]: < 40%
- MIC95 (Cryptococcus neoformans [40]): 34.6 µM (≈ 7.1 µg/mL)
- IC50 (L1210 [41]): 0.32 µM
- Activity (L1210 [42]): 4.72%
- inhibition [43]: < 40%
- inhibition [44]: < 40%
- inhibition [45]: < 40%
- inhibition [46]: < 40%
- inhibition [47]: < 40%

SMILES: COc1nc(OC)c2scc([C@H]3C[C@H](OC(C)=O)[C@@H](COC(C)=O)O3)c2n1
- IC50 (HeLa [1]): > 250 µM
- IC50 (L1210 [2]): > 250 µM
- IC50 (CCRF-CEM): > 250 µM
